Data reported in ChEMBL document CHEMBL3785027 (Eur J Med Chem, 2016).

Experiments:
Format in all cases: functional, cell-based
[1] = Cytotoxicity against human KBVIN cells after 72 hrs by sulforhodamine B colorimetric assay
KB = test: Cytotoxicity against human KB cells after 72 hrs by sulforhodamine B colorimetric assay
A549 = test: Cytotoxicity against human A549 cells after 72 hrs by sulforhodamine B colorimetric assay; conditions: A549, 72 h

SMILES | IC50 [1] [nM] | IC50 (KB) [nM] | IC50 (A549) [nM]
CCc1c2c(nc3ccc(OC(=O)N4CCC(N5CCCCC5)CC4)cc13)-c1cc3c(c(=O)n1C2)COC(=O)[C@]3(O)CC [IRINOTECAN] | > 20000 | 9830 | 9480
CCc1c2c(nc3ccccc13)-c1cc3c(c(=O)n1C2)COC(=O)[C@@]3(CC)OC(=O)C(C)N/C(Cc1ccc(OC)cc1)=N/S(C)(=O)=O (stereo partly specified) | 98.2 | 95.2 | 61
CC[C@@]1(OC(=O)CN/C(Cc2ccc(OC)cc2)=N/S(C)(=O)=O)C(=O)OCc2c1cc1n(c2=O)Cc2cc3ccccc3nc2-1 | 63.5 | 105 | 54
CC[C@@]1(OC(=O)CN/C(Cc2ccc(OC)cc2)=N/S(=O)(=O)c2ccc(C)cc2)C(=O)OCc2c1cc1n(c2=O)Cc2cc3c([N+](=O)[O-])cccc3nc2-1 | 4580 | 7040 | 6270
CC[C@@]1(OC(=O)CN/C(Cc2ccc(OC)cc2)=N/S(=O)(=O)c2ccc3ccccc3c2)C(=O)OCc2c1cc1n(c2=O)Cc2cc3ccccc3nc2-1 | 25.6 | 68.7 | 16.2
CC[C@@]1(OC(=O)CN/C(Cc2ccc(OC)cc2)=N/S(=O)(=O)c2ccc(C)cc2)C(=O)OCc2c1cc1n(c2=O)Cc2cc3cccc([N+](=O)[O-])c3nc2-1 | 10700 | 11300 | 13900
CCc1c2c(nc3ccccc13)-c1cc3c(c(=O)n1C2)COC(=O)[C@@]3(CC)OC(=O)CN/C(Cc1ccc(OC)cc1)=N/S(=O)(=O)c1ccc(C)cc1 | 10.1 | 9.4 | 6.8
CC[C@@]1(OC(=O)CN/C(Cc2ccc(OC)cc2)=N/S(=O)(=O)N(C)C)C(=O)OCc2c1cc1n(c2=O)Cc2cc3ccccc3nc2-1 | 45.3 | 66.5 | 40.8
CC[C@@]1(OC(=O)CN/C(Cc2ccc(OC)cc2)=N/S(=O)(=O)c2ccc(OC)cc2)C(=O)OCc2c1cc1n(c2=O)Cc2cc3ccccc3nc2-1 | 22.2 | 51.6 | 31.9
CC[C@@]1(OC(=O)CN/C(Cc2ccc(OC)cc2)=N/S(=O)(=O)CC)C(=O)OCc2c1cc1n(c2=O)Cc2cc3ccccc3nc2-1 | 78.6 | 64.2 | 48.1
CCc1c2c(nc3ccccc13)-c1cc3c(c(=O)n1C2)COC(=O)[C@@]3(CC)OC(=O)CN/C(Cc1ccc(OC)cc1)=N/S(C)(=O)=O | 25.8 | 16.7 | 19.8
CC[C@@]1(OC(=O)CN/C(Cc2ccc(OC)cc2)=N/S(=O)(=O)c2ccc(C)cc2)C(=O)OCc2c1cc1n(c2=O)C(OC)c2cc3ccccc3nc2-1 (stereo partly specified) | 6880 | 7560 | 7310
CC[C@@](O)(C(=O)NCCN/C(Cc1ccc(OC)cc1)=N/S(=O)(=O)c1ccc(C)cc1)c1cc2n(c(=O)c1COC(C)=O)Cc1cc3ccccc3nc1-2 | 947 | 937 | 688
CC[C@@]1(OC(=O)CCN/C(Cc2ccc(OC)cc2)=N\S(=O)(=O)c2ccc(C)cc2)C(=O)OCc2c1cc1n(c2=O)Cc2cc3ccccc3nc2-1 | 527 | 622 | 88.9
CCc1c2c(nc3ccccc13)-c1cc3c(c(=O)n1C2)COC(=O)[C@@]3(CC)OC(=O)C(C)N/C(Cc1ccccc1)=N/S(=O)(=O)c1ccc(C)cc1 (stereo partly specified) | 19.5 | 83.6 | 10.2
CCc1c2c(nc3ccc(O)cc13)-c1cc3c(c(=O)n1C2)COC(=O)[C@@]3(CC)OC(=O)CN/C(Cc1ccc(OC)cc1)=N/S(=O)(=O)c1ccc(C)cc1 | 28.2 | 4.5 | 21.8
CCc1c(OP(=O)(O)OC)ccc2nc3c(cc12)Cn1c-3cc2c(c1=O)COC(=O)[C@@]2(CC)OC(=O)CN/C(Cc1ccc(OC)cc1)=N/S(=O)(=O)c1ccc(C)cc1 | 305 | 141 | 344
CC[C@@]1(OC(=O)CN/C(Cc2ccc(OC)cc2)=N/S(=O)(=O)c2ccc(C)cc2)C(=O)OCc2c1cc1n(c2=S)Cc2cc3ccccc3nc2-1 | 159 | 233 | 140

SMILES | IC50 [1] [nM] | IC50 (KB) [nM] | IC50 (A549) [nM]
CC[C@@]1(OC(=O)CN/C(Cc2ccc(OC)cc2)=N/S(=O)(=O)c2ccc(C)cc2)C(=O)OCc2c1cc1n(c2=O)Cc2cc3ccccc3nc2-1 | 26.3 | – | –
CC[C@@]1(OC(=O)CN/C(Cc2ccc(OC)cc2)=N/S(=O)(=O)c2cccs2)C(=O)OCc2c1cc1n(c2=O)Cc2cc3ccccc3nc2-1 | 32.5 | 55 | 37.5
CC[C@@]1(OC(=O)CN/C(Cc2ccc(Cl)cc2)=N/S(=O)(=O)c2ccc(C)cc2)C(=O)OCc2c1cc1n(c2=O)Cc2cc3ccccc3nc2-1 | 64.8 | 100 | 54.9
CC[C@@]1(OC(=O)C(C)N/C(Cc2ccc(OC)cc2)=N/S(=O)(=O)c2ccc(C)cc2)C(=O)OCc2c1cc1n(c2=S)Cc2cc3ccccc3nc2-1 (stereo partly specified) | 151 | 109 | 86.9
CC[C@@]1(OC(=O)CN/C(Cc2ccc(C)cc2)=N/S(=O)(=O)c2ccc(C)cc2)C(=O)OCc2c1cc1n(c2=O)Cc2cc3ccccc3nc2-1 | 27.5 | 73.9 | 17.4
CCc1c2c(nc3ccccc13)-c1cc3c(c(=O)n1C2)COC(=O)[C@@]3(CC)OC(=O)C(C)N/C(Cc1ccc(Cl)cc1)=N/S(=O)(=O)c1ccc(C)cc1 (stereo partly specified) | 16 | 13.3 | 12.9
CC[C@@]1(OC(=O)CN/C(Cc2ccc(OC)cc2)=N/S(=O)(=O)c2ccc(Cl)cc2)C(=O)OCc2c1cc1n(c2=O)Cc2cc3ccccc3nc2-1 | 24.8 | 73 | 16.5
CC[C@@]1(OC(=O)CN/C(Cc2ccc(OC)cc2)=N/S(=O)(=O)c2cccnc2)C(=O)OCc2c1cc1n(c2=O)Cc2cc3ccccc3nc2-1 | 123 | 93.8 | 76.5
CCCCS(=O)(=O)/N=C(\Cc1ccc(OC)cc1)NCC(=O)O[C@]1(CC)C(=O)OCc2c1cc1n(c2=O)Cc2cc3ccccc3nc2-1 | 43.5 | 54.2 | 34.9
CCc1c2c(nc3ccccc13)-c1cc3c(c(=O)n1C2)COC(=O)[C@@]3(CC)OC(=O)C(C)N/C(Cc1ccc(OC)cc1)=N/S(=O)(=O)c1ccc(C)cc1 (stereo partly specified) | 22.7 | 84.2 | 16
CC[C@@]1(OC(=O)CN/C(Cc2ccc(OC)cc2)=N/S(=O)(=O)c2ccc([N+](=O)[O-])cc2)C(=O)OCc2c1cc1n(c2=O)Cc2cc3ccccc3nc2-1 | 14.9 | 14.9 | 14.9
CC[C@@]1(OC(=O)CN/C(C[Si](C)(C)C)=N/S(=O)(=O)c2ccc(C)cc2)C(=O)OCc2c1cc1n(c2=O)Cc2cc3ccccc3nc2-1 | 39.9 | 57.8 | 30.2
CC[C@@]1(OC(=O)CN/C(Cc2ccc(OC)cc2)=N/S(=O)(=O)c2ccc(F)cc2)C(=O)OCc2c1cc1n(c2=O)Cc2cc3ccccc3nc2-1 | 22.5 | 16.9 | 14.1
CCc1c2c(nc3ccccc13)-c1cc3c(c(=O)n1C2)COC(=O)[C@@]3(CC)OC(=O)CN/C(Cc1ccccc1)=N/S(=O)(=O)c1ccc(C)cc1 | 18.5 | 89.5 | 7.2
CC[C@@]1(OC(=O)CN/C(Cc2ccc(OC)cc2)=N/S(=O)(=O)c2ccc(C)cc2)C(=O)OCc2c1cc1n(c2=O)Cc2cc3cc(O)ccc3nc2-1 | 101 | 63.1 | 64
CC[C@@]1(OC(=O)CN/C(Cc2ccccc2)=N/S(=O)(=O)c2ccc(C)cc2)C(=O)OCc2c1cc1n(c2=O)Cc2cc3c([N+](=O)[O-])cccc3nc2-1 | 9130 | 9050 | 8270
CC[C@@]1(OC(=O)CCCN/C(Cc2ccc(OC)cc2)=N\S(=O)(=O)c2ccc(C)cc2)C(=O)OCc2c1cc1n(c2=O)Cc2cc3ccccc3nc2-1 | 955 | 830 | 448
CC[C@@]1(OC(=O)CN/C(Cc2ccc(OC)cc2)=N/S(=O)(=O)c2ccc(C)cc2)CC(=O)OCc2c1cc1n(c2=O)Cc2cc3ccccc3nc2-1 | 263 | 232 | 83.6
